We go through two molecules from US8470370B2, “Controlled release formulations” (Aegis Therapeutics, LLC, priority 2007, dated 2013).

Molecules are shown by their SMILES.

A short description of data set [1]: Curcumin concentration in tetradecylmaltoside hydrogel versus solubility in water. The class given is physicochemical. The text has this:
Curcumin was also used in the preparation of hydrogels. Curcumin is a natural product isolated from the root of Curcuma longa from which the spice turmeric is obtained. It has been reported to have potent antioxidative, anti-inflammatory and antiseptic properties, but has extremely low solubility in water and poor bioavailability which limits its pharmaceutical use. By encapsulating curcumin in a hydrogel composed of 2% tetradecylmaltoside a concentration of the compound in the gel can be obtained which is about 33,000 times higher than the solubility of curcumin in water, for example, 1×10^−3 M in the hydrogel vs. 3×10^−8 M in water. The resulting gels are yellow or yellow-orange in color depending on whether sodium bicarbonate is present during the formulation of the gel (see FIG. 13). FIG. 13 is a pictorial representation showing hydrogels of curcumin. Sample E-2 is a hydrogel composed of 2% tetradecylmaltoside and 1 mM curcumin. Sample F-2 is a hydrogel composed of 2% tetradecylmaltoside, 1 mM curcumin, and 0.1 M sodium bicarbonate.

A short description of data set [2]: Solubility of folic acid in water and 0.1 M sodium bicarbonate. Type of data set: physicochemical. On the procedure:
FIGS. 20 and 21 show several examples of these hydrogels. A-4 is a hydrogel of 2% sucrose stearate/sucrose distearate containing 2.5 mg/ml of folic acid. […] F-4 is a similar hydrogel containing 1 mM curcumin formed from 2% sucrose stearate/sucrose distearate in 0.1M sodium bicarbonate again after heating to 45 degrees C., vortexing to distribute the curcumin and letting the hydrogel form upon cooling to room temperature.

Take `COc1cc(/C=C/C(=O)CC(=O)/C=C/c2ccc(O)c(OC)c2)ccc1O` [curcumin]: the “concentration of curcumin in the hydrogel” value in data set [1] (2% tetradecylmaltoside hydrogel) worked out at 1000 µM. The “concentration in gel relative to solubility in water” value in data set [1] (2% tetradecylmaltoside hydrogel vs water) is recorded as “about 33,000 times”.
As to `Nc1nc2ncc(CNc3ccc(C(=O)N[C@@H](CCC(=O)O)C(=O)O)cc3)nc2c(=O)[nH]1` [Folic acid, folic acid], the “solubility of folic acid” value is reported as “completely dissolves” in data set [2] (0.1 M sodium bicarbonate, 2.5 mg/ml for sample B-5) and “poorly soluble” in data set [2] (water, 2.5 mg/ml for sample A-5).
